Source: PubChem BioAssay (NCI)
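Tested at 5 concentrations; 48 h exposure; 96-well plates; endpoints linearly interpolated, else capped at highest concentration. GI50 marks 50% less growth. TGI: concentration producing complete growth inhibition.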

Key:
Test in all cases: NCI tumour cell line growth inhibition, 48 h
HL-60(TB) leukemia = system: HL-60(TB) leukemia
LOX IMVI melanoma = system: LOX IMVI melanoma
HCT-116 colon = system: HCT-116 colon
NCI-H522 lung = system: NCI-H522 lung
T-47D breast = system: T-47D breast
NCI/ADR-RES ovarian = system: NCI/ADR-RES ovarian
SNB-75 CNS = system: SNB-75 CNS
SK-MEL-5 melanoma = system: SK-MEL-5 melanoma
HCT-15 colon = system: HCT-15 colon
786-0 renal = system: 786-0 renal
NCI-H226 lung = system: NCI-H226 lung
SK-MEL-28 melanoma = system: SK-MEL-28 melanoma
NCI-H460 lung = system: NCI-H460 lung
M14 melanoma = system: M14 melanoma
RXF 393 renal = system: RXF 393 renal
HOP-62 NSCLC = system: HOP-62 NSCLC
TK-10 renal = system: TK-10 renal
MOLT-4 leukemia = system: MOLT-4 leukemia
A549 NSCLC = system: A549 NSCLC
ACHN renal = system: ACHN renal
HT29 colon = system: HT29 colon
OVCAR-4 ovarian = system: OVCAR-4 ovarian
MDA-MB-231 breast = system: MDA-MB-231 breast
SK-OV-3 ovarian = system: SK-OV-3 ovarian
OVCAR-8 ovarian = system: OVCAR-8 ovarian
PC-3 prostate = system: PC-3 prostate
CCRF-CEM leukemia = system: CCRF-CEM leukemia
IGROV1 ovarian = system: IGROV1 ovarian
SNB-19 CNS = system: SNB-19 CNS
HOP-92 NSCLC = system: HOP-92 NSCLC
SW-620 colon = system: SW-620 colon
CAKI-1 renal = system: CAKI-1 renal
SF-295 CNS = system: SF-295 CNS
UO-31 renal = system: UO-31 renal
OVCAR-5 ovarian = system: OVCAR-5 ovarian
MCF7 breast = system: MCF7 breast
EKVX NSCLC = system: EKVX NSCLC
U251 CNS = system: U251 CNS
K-562 leukemia = system: K-562 leukemia
MDA-MB-435 = system: MDA-MB-435
MALME-3M melanoma = system: MALME-3M melanoma
RPMI-8226 leukemia = system: RPMI-8226 leukemia
UACC-62 melanoma = system: UACC-62 melanoma
SF-268 CNS = system: SF-268 CNS
HS 578T breast = system: HS 578T breast
DU-145 prostate = system: DU-145 prostate
NCI-H23 lung = system: NCI-H23 lung
SR leukemia = system: SR leukemia
SN12C renal = system: SN12C renal
SK-MEL-2 melanoma = system: SK-MEL-2 melanoma
OVCAR-3 ovarian = system: OVCAR-3 ovarian
A498 renal = system: A498 renal
COLO 205 colon = system: COLO 205 colon
UACC-257 melanoma = system: UACC-257 melanoma
HCC-2998 colon = system: HCC-2998 colon
BT-549 breast = system: BT-549 breast
SF-539 CNS = system: SF-539 CNS
KM12 colon = system: KM12 colon

Compound: CCCCN=C(N)c1ccc(N2CCCN(c3ccc(C(N)=NCCCC)cc3)CC2)cc1
- TGI (HL-60(TB) leukemia): 0.159 µM
- GI50 (LOX IMVI melanoma): 22.5 µM
- TGI (LOX IMVI melanoma): > 67.6 µM
- GI50 (HCT-116 colon): 21 µM
- TGI (HCT-116 colon): > 100 µM
- GI50 (NCI-H522 lung): 11.8 µM
- TGI (NCI-H522 lung): > 100 µM
- GI50 (T-47D breast): 10.9 µM
- TGI (T-47D breast): > 100 µM
- GI50 (NCI/ADR-RES ovarian): > 100 µM
- TGI (NCI/ADR-RES ovarian): > 100 µM
- GI50 (SNB-75 CNS): 6.29 µM
- TGI (SNB-75 CNS): > 100 µM
- GI50 (SK-MEL-5 melanoma): 5.04 µM
- TGI (SK-MEL-5 melanoma): 21.7 µM
- GI50 (HCT-15 colon): > 100 µM
- TGI (HCT-15 colon): > 100 µM
- GI50 (786-0 renal): > 74.6 µM
- TGI (786-0 renal): > 100 µM
- GI50 (NCI-H226 lung): 1.66 µM
- TGI (NCI-H226 lung): 99.8 µM
- GI50 (SK-MEL-28 melanoma): 31.2 µM
- TGI (SK-MEL-28 melanoma): > 100 µM
- GI50 (NCI-H460 lung): 4.15 µM
- TGI (NCI-H460 lung): 97.6 µM
- GI50 (M14 melanoma): 43.1 µM
- TGI (M14 melanoma): > 100 µM
- TGI (RXF 393 renal): > 68.3 µM
- GI50 (HOP-62 NSCLC): 15.8 µM
- TGI (HOP-62 NSCLC): > 90.1 µM
- GI50 (TK-10 renal): 11.4 µM
- TGI (TK-10 renal): > 84.7 µM
- GI50 (MOLT-4 leukemia): 25.2 µM
- TGI (MOLT-4 leukemia): > 100 µM
- GI50 (A549 NSCLC): 4.07 µM
- TGI (A549 NSCLC): > 100 µM
- GI50 (ACHN renal): > 21.9 µM
- TGI (ACHN renal): > 100 µM
- GI50 (HT29 colon): 10.7 µM
- TGI (HT29 colon): > 59.7 µM
- GI50 (OVCAR-4 ovarian): 83.1 µM
- TGI (OVCAR-4 ovarian): > 100 µM
- GI50 (MDA-MB-231 breast): 27.7 µM
- TGI (MDA-MB-231 breast): > 100 µM
- GI50 (SK-OV-3 ovarian): > 100 µM
- TGI (SK-OV-3 ovarian): > 100 µM
- GI50 (OVCAR-8 ovarian): 14.1 µM
- TGI (OVCAR-8 ovarian): > 100 µM
- GI50 (PC-3 prostate): 11.5 µM
- TGI (PC-3 prostate): > 100 µM
- GI50 (CCRF-CEM leukemia): 16.3 µM
- TGI (CCRF-CEM leukemia): > 100 µM
- GI50 (IGROV1 ovarian): 24.5 µM
- TGI (IGROV1 ovarian): > 85.9 µM
- GI50 (SNB-19 CNS): > 21.4 µM
- TGI (SNB-19 CNS): > 100 µM
- GI50 (HOP-92 NSCLC): 14.6 µM
- TGI (HOP-92 NSCLC): > 84 µM
- GI50 (SW-620 colon): 13.6 µM
- TGI (SW-620 colon): > 100 µM
- GI50 (CAKI-1 renal): > 72.3 µM
- TGI (CAKI-1 renal): > 100 µM
- GI50 (SF-295 CNS): 6.39 µM
- TGI (SF-295 CNS): 57.6 µM
- GI50 (UO-31 renal): > 66.1 µM
- TGI (UO-31 renal): > 100 µM
- GI50 (OVCAR-5 ovarian): 45.7 µM
- TGI (OVCAR-5 ovarian): > 100 µM
- GI50 (MCF7 breast): 7.44 µM
- TGI (MCF7 breast): > 100 µM
- GI50 (EKVX NSCLC): 10.6 µM
- TGI (EKVX NSCLC): > 100 µM
- GI50 (U251 CNS): 4.81 µM
- TGI (U251 CNS): > 100 µM
- GI50 (K-562 leukemia): 3.69 µM
- TGI (K-562 leukemia): > 100 µM
- GI50 (MDA-MB-435): 14.8 µM
- TGI (MDA-MB-435): > 96.6 µM
- GI50 (MALME-3M melanoma): 1 µM
- TGI (MALME-3M melanoma): 26.2 µM
- GI50 (RPMI-8226 leukemia): 5.37 µM
- TGI (RPMI-8226 leukemia): > 59.8 µM
- GI50 (UACC-62 melanoma): 7.58 µM
- TGI (UACC-62 melanoma): 27.5 µM
- GI50 (SF-268 CNS): 8.53 µM
- TGI (SF-268 CNS): > 100 µM
- GI50 (HS 578T breast): 5.02 µM
- TGI (HS 578T breast): > 90.7 µM
- GI50 (DU-145 prostate): 25.1 µM
- TGI (DU-145 prostate): > 100 µM
- GI50 (NCI-H23 lung): 5.67 µM
- TGI (NCI-H23 lung): > 100 µM
- GI50 (SR leukemia): 1.36 µM
- TGI (SR leukemia): 4.44 µM
- GI50 (SN12C renal): 16.6 µM
- TGI (SN12C renal): > 100 µM
- GI50 (SK-MEL-2 melanoma): 12.3 µM
- TGI (SK-MEL-2 melanoma): 44.6 µM
- GI50 (OVCAR-3 ovarian): 8.73 µM
- TGI (OVCAR-3 ovarian): > 81.7 µM
- GI50 (A498 renal): 0.529 µM
- TGI (A498 renal): 30.3 µM
- GI50 (COLO 205 colon): 6.82 µM
- TGI (COLO 205 colon): > 100 µM
- GI50 (UACC-257 melanoma): 10 µM
- TGI (UACC-257 melanoma): 66.8 µM
- GI50 (HCC-2998 colon): 8.88 µM
- TGI (HCC-2998 colon): 58.2 µM
- GI50 (BT-549 breast): 14.4 µM
- TGI (BT-549 breast): > 58.3 µM
- GI50 (SF-539 CNS): 7.34 µM
- TGI (SF-539 CNS): > 50.1 µM
- GI50 (KM12 colon): 5.72 µM
- TGI (KM12 colon): 47.8 µM
